What was measured:
[1] = test system: clonidine-induced aggressive behavior in mice; experiment: Activity on Clonidine-induced Aggressive Behavior; type: in vivo, mouse (male ddY); settings: 10 mg/kg po; for Number of attacks (count; average ± S.E.M.), test compound group: *: p < 0.05, 10 animals
Protocol: Activity on Clonidine-induced Aggressive Behavior
Effect of test compounds to increase aggressive behavior induced by the intraperitoneal injection of clonidine [European Journal of Pharmacology, 29: 374 (1968)] was examined.
This test was carried out using 2 animals per group of male ddY mice of 20 to 25 g in body weight (Japan SLC). Each test compound was used by mixing it with Tween 80 and then suspending it in distilled water for injection (manufactured by Otsuka Pharmaceutical), and clonidine hydrochloride (manufactured by Sigma Co.) was used by dissolving it in physiological saline (manufactured by Otsuka Pharmaceutical). […] The number of aggressive behavior of each mouse was measured for 30 minutes immediately after the administration of clonidine. The effect was judged by comparing values of the number of aggressive behavior in the control and those in test compound-administered groups (significance test: Student t-test).

[2] = test system: CGS 21680-induced catalepsy in mice; experiment: Activity on CGS 21680-induced Catalepsy; type: in vivo, mouse (male ddY); settings: 10 mg/kg oral; for Total score (catalepsy): 10 animals, maximum 50 points, control 48; for Number of Animals showing remission: catalepsy score 4 points or less in 10 cases; for inhibition in vivo at 10 mg/kg: Mus musculus, CGS 21680-induced catalepsy, read-out: Remission ratio (%)
Summary of the method: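 Male ddY mice (5 weeks, 10 per group) received CGS 21680 10 μg/20 μl intracerebroventricularly; test compounds given orally at 10 mg/kg in 0.3% Tween 80 suspension. Catalepsy scored 1 h after dosing on a 4.5 cm bar; total group score (maximum 50) compared with control; ≤4 per animal counted as remission.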

[3] = test system: haloperidol-induced catalepsy in mice; experiment: Activity on haloperidol-induced Catalepsy; type: in vivo, mouse (male ddY); settings: 10 mg/kg oral; for Total score (catalepsy): 10 animals, maximum 50 points, control 50; for Number of Animals showing remission: catalepsy score 4 points or less in 10 cases; for Remission ratio (%): haloperidol-induced catalepsy
Protocol: Activity on haloperidol-induced Catalepsy
Parkinson's disease is a disease based on the degeneration and cell death of the nigrostriatal dopaminergic neuron. When haloperidol (dopamine D1/D2 antagonist) is administered, catalepsy is induced by the block of postsynaptic D2 receptor. This haloperidol-induced catalepsy is known as a classic model in which symptoms of Parkinson's disease are produced by drug administration [European Journal of Pharmacology, 182: 327 (1990) and U.S. Pat. No. 3,991,207].
This test was carried out using 10 animals per group of male ddY mice of 5 week age (22 to 24 g in body weight, Japan SLC). Haloperidol (manufacturedby Janssen) was suspended in 0.3% CMC and administered intraperitoneally into mice at a dose of 1.0 mg/kg. Each test compound was used by mixing it with Tween 80 and then suspending it in distilled water for injection (manufactured by Otsuka Pharmaceutical). Also, L-DOPA (manufactured by Kyowa Hakko Kogyo Co., Ltd.) and benserazide HCl (manufactured by Kyowa Hakko Kogyo Co., Ltd.) were used by suspending them in 0.3% CMC. […] All of the test compounds were administered orally in a dose of 10 mg/kg, and 100 mg/kg of L-DOPA and 25 mg/kg of benserazide were used in combination as a control drug and administered by intraperitoneal injection. The catalepsy score was evaluated by the judging criteria shown in the above-described Table 3.
The effect was judged by total catalepsy scores of 10 animals in one group (the maximum is 50 points). When the total score was 40 points or less, the activity of drugs was judged positive. The number of animals showing remission of catalepsy was expressed by the number of cases in which the catalepsy score was 4 points or less in 10 cases. The catalepsy remission ratio was expressed as the percentage of the total score in the test compound-administered group to the total score in the control group.

adenosine A2A receptor = molecular target: T1, adenosine A2A receptor (Rattus norvegicus, UniProt P30543); experiment: Adenosine receptor binding activity (adenosine A2A receptor binding test), 3H-CGS 21680 binding; settings: 2 h, read-out: A2A receptor inhibition ratio (%); for inhibition at 0.1 µM: 10^-7 M; for inhibition at 0.01 µM: 10^-8 M
T1 construct: from tissue; host or cells: rat corpus striatum, washed membrane suspension
Summary of the method: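 Rat corpus striatum membranes (5 mg wet tissue/mL in 50 mM Tris-HCl pH 7.7, 10 mM MgCl2, adenosine deaminase) incubated with 4.0 nM 3H-CGS 21680 and test compound for 120 min at 25 °C, then filtered and counted. Nonspecific binding defined with 100 μM CPA; % inhibition of specific binding calculated.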

T1 sequence (P30543 whole entry): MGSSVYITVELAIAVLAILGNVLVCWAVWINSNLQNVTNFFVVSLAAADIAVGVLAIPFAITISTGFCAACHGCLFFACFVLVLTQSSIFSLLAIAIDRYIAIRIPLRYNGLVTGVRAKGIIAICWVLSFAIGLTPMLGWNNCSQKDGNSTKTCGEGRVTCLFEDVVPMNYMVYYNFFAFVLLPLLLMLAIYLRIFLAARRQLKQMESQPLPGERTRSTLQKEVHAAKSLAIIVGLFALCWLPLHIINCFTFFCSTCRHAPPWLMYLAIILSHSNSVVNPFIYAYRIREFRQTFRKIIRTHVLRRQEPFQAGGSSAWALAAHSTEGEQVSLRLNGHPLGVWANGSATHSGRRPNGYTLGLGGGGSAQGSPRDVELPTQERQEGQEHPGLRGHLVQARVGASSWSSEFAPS

Row | inhibition at 0.1 µM (adenosine A2A receptor) [%] | inhibition at 0.01 µM (adenosine A2A receptor) [%] | SMILES | Number of attacks in test compound group/number of attacks in control group [1] | Number of attacks (count; average ± S.E.M.), test compound group [1] [count] | Total score (catalepsy) [2] | Number of Animals showing remission [2] | inhibition in vivo at 10 mg/kg [2] [%] | Total score (catalepsy) [3] | Number of Animals showing remission [3] | Remission ratio (%) [3] [%]
1 |  |  | COc1ccc(Oc2cc3nc(-c4ccco4)nn3c(N)n2)cc1OC [Compound 31, 5-Amino-7-(3,4-dimethoxyphenoxy)-2-(2-furyl)[1,2,4]triazolo[1,5-c]pyrimidine] | 9.1 | 38.1 ± 13.06 | 28 | 9 | 42 | 15 | 10 | 70
2 | 89 | 71 | COc1cccc(OC)c1Oc1cc2nc(-c3ccco3)nn2c(N)n1 [Compound 32, 5-Anino-7-(2,6-dimethoxyphenoxy)-2-(2-furyl)[1,2,4]triazolo[1,5-c]pyrimidine] |  |  | 21 | 9 | 54 | 37 | 5 | 26
3 |  |  | Nc1nc(N2CCOCC2)cc2nc(-c3ccco3)nn12 [Compound 39, 5-Amino-2-(2-furyl)-7-morpholino[1,2,4]triazolo[1.5-c]pyrimidine] | 8.1 | 9.70 ± 3.42 | 20 | 9 | 56 |  |  | 
4 | 50 | 11 | CN1CCN(c2cc3nc(-c4ccco4)nn3c(N)n2)CC1 [Compound 40, 5-Amino-2-(2-furyl)-7-(4-methylpiperazinyl)[1,2,4]triazolo[1,5-c]pyrimidine] | 7.6 | 22.00 ± 6.44 | 20 | 10 | 56 | 18 | 7 | 64
5 | 82 | 43 | Nc1nc(N2CCN(Cc3ccccc3)CC2)cc2nc(-c3ccco3)nn12 [Compound 42, 5-Amino-7-(4-benzylpiperazinyl)2-(2-furyl)[1,2,4]triazolo[1,5-c]pyrimidine] |  |  | 12 | 9 | 72 | 1 | 10 | 98
6 | 79 | 35 | Nc1nc(N2CCN(CCc3ccccc3)CC2)cc2nc(-c3ccco3)nn12 [Compound 46, 5-Amino-2-(2-furyl)-7-[4-(2-phenylethyl)piperazinyl][1,2,4]triazolo[1,5-c]pyrimidine] |  |  | 9 | 10 | 78 | 13 | 10 | 74
7 |  |  | CCOC(=O)c1cnc(N)n2nc(-c3ccco3)nc12 [Compound 55, 5-Amino-8-ethoxycarbonyl-2-(2-furyl)[1,2,4]triazolo[1,5-c]pyrimidine] |  |  | 29 | 9 | 36 | 35 | 5 | 30
8 | 59 |  | Nc1nc(N2CCN(CCCF)CC2)cc2nc(-c3ccco3)nn12 [Compound 127, 5-Amino-7-(4-(3-fluoropropyl)piperazinyl)-2-(2-furyl)[1,2,4]triazolo[1,5-c]pyrimidine] |  |  | 3 | 10 | 96 |  |  | 
9 | 49 |  | CCCCN1CCN(c2cc3nc(-c4ccco4)nn3c(N)n2)CC1 [Compound 135, 5-Amino-7-(4-butylpiperazinyl)-2-(2-furyl)[1,2,4]triazolo[1,5-c]pyrimidine] |  |  | 9 | 9 | 80 |  |  | 
10 | 66 |  | Cc1nc(CN2CCN(c3cc4nc(-c5ccco5)nn4c(N)n3)CC2)cs1 [Compound 142, 5-Amino-2-(2-furyl)-7-(4-(2-methylthiazol-4-ylmethyl)piperazinyl)[1,2,4]triazolo[1,5-c]pyrimidine] |  |  | 6 | 10 | 88 |  |  | 
11 | 58 |  | Nc1nc(N2CCN(Cc3cnns3)CC2)cc2nc(-c3ccco3)nn12 [Compound 144, 5-Amino-2-(2-furyl)-7-(4-(1,2,3-thiadiazol-5-ylmethyl)piperazinyl)[1,2,4]triazolo[1,5-c]pyrimidine] |  |  | 9 | 9 | 80 |  |  | 
12 | 48 |  | CC(C)C(=O)c1cnc(N)n2nc(-c3ccco3)nc12 [Compound 153, 5-Amino-8-(1-oxo-2-methylpropyl)-2-(2-furyl)[1,2,4]triazolo[1,5-c]pyrimidine] |  |  | 10 | 9 | 80 |  |  | 
13 | 92 |  | CCC(=O)c1cnc(N)n2nc(-c3ccco3)nc12 [Compound 158, 5-Amino-2-(2-furyl)-8-propionyl[1,2,4]triazolo[1,5-c]pyrimidine] |  |  | 23 | 8 | 52 |  |  | 
14 | 96 |  | CCNC(=O)c1cnc(N)n2nc(-c3ccco3)nc12 [Compound 169, 5-Amino-8-ethylcarbamoyl-2-(2-furyl)[1,2,4]triazolo[1,5-c]pyrimidine] |  |  | 9 | 10 | 82 |  |  | 
15 | 91 |  | N#Cc1ccccc1CSc1cc2nc(-c3ccco3)nn2c(N)n1 [Compound 188, 5-Amino-7-(2-cyanobenzylthio)-2-(2-furyl)[1,2,4]triazolo[1,5-c]pyrimidine] |  |  | 15 | 2 | 70 |  |  | 

— patent US6222035A, “[1,2,4] triazolo [1,5-C] pyrimidine derivatives” (Kyowa Hakko Kogyo Co., Ltd., priority 1997, dated 2001)
